Test results taken from ChEMBL document CHEMBL4406903, “Synthesis of benzopyran derivatives as PPARα and/or PPARγ activators” (Bioorg Med Chem, 2019).
The source made the active and inactive calls. The rule behind the calls is not given here.

Tests used:
Format in all cases: cell-based
[1] = molecular target: T1, Peroxisome proliferator-activated receptor alpha (Homo sapiens) (UniProt Q07869); assay: Transactivation of GAL4-fused human PPARalpha expressed in COS7 cells assessed as efficacy at 10 uM incubated for 24 hrs by luciferase reporter gene assay relative to WY-14643
T1 sequence (whole entry): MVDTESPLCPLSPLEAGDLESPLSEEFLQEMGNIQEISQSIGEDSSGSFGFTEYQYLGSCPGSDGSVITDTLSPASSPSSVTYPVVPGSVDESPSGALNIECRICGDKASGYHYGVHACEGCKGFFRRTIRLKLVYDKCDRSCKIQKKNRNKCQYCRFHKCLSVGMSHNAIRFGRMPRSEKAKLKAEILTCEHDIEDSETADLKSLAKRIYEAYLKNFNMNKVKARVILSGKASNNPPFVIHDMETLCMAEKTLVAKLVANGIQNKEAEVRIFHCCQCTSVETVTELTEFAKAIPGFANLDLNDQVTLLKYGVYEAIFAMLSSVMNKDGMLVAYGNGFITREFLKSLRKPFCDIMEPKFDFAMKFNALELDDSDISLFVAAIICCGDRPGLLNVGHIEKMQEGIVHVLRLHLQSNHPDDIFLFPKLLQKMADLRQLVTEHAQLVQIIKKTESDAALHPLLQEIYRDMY

[2] = molecular target: T2, Peroxisome proliferator-activated receptor gamma (Homo sapiens) (UniProt P37231); assay: Transactivation of GAL4-fused human PPARgamma expressed in COS7 cells assessed as efficacy at 10 uM incubated for 24 hrs by luciferase reporter gene assay relative to rosiglitazone
T2 sequence (whole entry): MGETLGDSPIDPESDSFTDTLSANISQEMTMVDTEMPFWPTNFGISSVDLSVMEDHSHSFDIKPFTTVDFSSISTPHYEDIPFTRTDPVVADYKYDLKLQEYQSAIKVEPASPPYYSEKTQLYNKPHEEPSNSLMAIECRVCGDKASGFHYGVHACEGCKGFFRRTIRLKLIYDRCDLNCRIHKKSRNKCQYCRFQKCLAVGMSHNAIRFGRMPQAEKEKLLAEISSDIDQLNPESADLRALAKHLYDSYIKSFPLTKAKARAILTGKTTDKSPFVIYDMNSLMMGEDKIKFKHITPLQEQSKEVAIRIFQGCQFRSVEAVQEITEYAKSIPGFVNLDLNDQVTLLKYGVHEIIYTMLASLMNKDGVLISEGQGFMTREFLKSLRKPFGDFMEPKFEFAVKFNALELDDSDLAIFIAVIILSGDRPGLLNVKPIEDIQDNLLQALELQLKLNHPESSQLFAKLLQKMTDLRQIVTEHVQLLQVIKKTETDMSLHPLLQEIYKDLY

[3] = molecular target: T2, Peroxisome proliferator-activated receptor gamma (Homo sapiens); assay: Agonist activity at GAL4-fused human PPARgamma expressed in COS7 cells incubated for 24 hrs by luciferase reporter gene assay
[4] = molecular target: T1, Peroxisome proliferator-activated receptor alpha (Homo sapiens); assay: Agonist activity at GAL4-fused human PPARalpha expressed in COS7 cells incubated for 24 hrs by luciferase reporter gene assay

Efficacy [1] | Efficacy [2] | Activity [3] | Activity [4] | Compound
inactive | 30% | Active | – | CCCCCC1(C)CC(=O)c2c(ccc(O)c2Cl)O1 (centres undefined)
– | inactive | – | – | Cc1cccc(Nc2cc(Cl)nc(SCC(=O)O)n2)c1C
– | – | inactive | inactive | CCCCCC1(C)CC(O)c2cc(O)ccc2O1 (centres undefined)
35% | inactive | – | Active | C=C(C)CCC1(C)CCc2cc(O)ccc2O1 (centres undefined)
21% | inactive | – | Active | CC1(CCC(=O)O)CCc2cc(O)ccc2O1 (centres undefined)
23% | inactive | – | Active | CC(C)(O)CCC1(C)CC(=O)c2cc(O)ccc2O1 (centres undefined)
– | – | inactive | inactive | CC(C)=CCCC1(C)CC(O)c2cc(O)ccc2O1 (centres undefined)
16% | inactive | – | Active | CCOC(=O)CCC1(C)CC(=O)c2cc(O)ccc2O1 (centres undefined)
40% | inactive | – | Active | CC(=O)Oc1ccc2c(c1)C(=O)CC(C)(CCC(C)OC(C)=O)O2 (centres undefined)
23% | inactive | – | Active | CC(O)CCC1(C)CC(=O)c2cc(O)ccc2O1 (centres undefined)
33% | inactive | – | Active | COC(=O)CCC1(C)CCc2cc(O)ccc2O1 (centres undefined)
